Measurements reported in US6818407B2, “Anti-endotoxic antimicrobial cationic peptides and methods of use therfor” (priority 1998, dated 2004).

How the values were obtained:
[1] = Lethal endotoxemia in galactosamine-sensitized mice; format: in vivo, CD-1 mice; conditions: peptide 200 μg intraperitoneal within 10 min of 10 μg LPS; 24 hours post injection; 5 mice per group; no peptide 100
Description: To confirm this in vivo, endotoxic shock was induced by intraperitoneal injection of 10 μg of E.coli 0111:B4 LPS in phosphate-buffered saline (PBS; pH 7.2) into galactosamine-sensitized 8- to 10- week old female CD-1 mice (5 per group). In experiments involving peptides, 200 μg in 100 μl of sterile water was injected at separate intraperitoneal sites within 10 min of LPS injection. Survival was monitored at 24 hours post injection.

[2] = tested on: P. aeruginosa (H103); assay: Synergy study (checkerboard titration) with hen white lysozyme; format: cell-based; conditions: for Lowest [CP] showing synergy: cationic peptide concentration, combined with lysozyme; for Lowest [Lyso] showing synergy: lysozyme concentration, combined with the peptide
Description: (§1) The biological activity of the peptides can be determined by standard methods known to those of skill in the art, such as Aminimal inhibitory concentration (MIC)≅ assay described in the present examples, whereby the lowest concentration at which no change in OD is observed for a given period of time is recorded as MIC. Alternatively, Afractional inhibitory concentration (FIC)≅ is also useful for determination of synergy between the peptides of the invention, or the peptides in combination with known antibiotics. FICs are performed by checkerboard titrations of peptides in one dimension of a microtiter plate, and of antibiotics in the other dimension, for example. The FIC is calculated by looking at the impact of one antibiotic on the MIC of the other and vice versa. […] Preferably, an FIC of less than 0.5 is obtained for synergism. As used herein, FIC can be determined as follows: [formula]

[3] = tested on: E. coli; assay: as above; format: cell-based; conditions: for Lowest [CP] showing synergy: cationic peptide concentration, combined with lysozyme; for Lowest [Lyso] showing synergy: lysozyme concentration, combined with the peptide
Description: as §1

[4] = tested on: Salmonella typhi; assay: as above; format: cell-based; conditions: for Lowest [CP] showing synergy: cationic peptide concentration, combined with lysozyme; for Lowest [Lyso] showing synergy: lysozyme concentration, combined with the peptide
Description: as §1

[5] = tested on: S. aureus; assay: MIC, broth microdilution assay in polypropylene microtiter trays; format: cell-based; conditions: average of three separate experiments
Description: as §1
(§2) A method which employed polypropylene microtiter trays in a broth microdilution assay was developed.

[6] = tested on: S. epidermis; assay: as above; format: cell-based; conditions: average of three separate experiments
Description: as §1, §2

[7] = tested on: E. coli; assay: as above; format: cell-based; conditions: average of three separate experiments
Description: as §1, §2

[8] = tested on: P. aeruginosa; assay: as above; format: cell-based; conditions: average of three separate experiments
Description: as §1, §2

[9] = tested on: S. aureus K147; assay: as above; format: cell-based; conditions: average of three separate experiments
Description: as §1, §2

[10] = tested on: mutant (Nal B, H744) of P. aeruginosa; assay: microbe, parasite or virus in culture; format: cell-based; conditions: for (B) MIC of Cipro when combined with peptide: ciprofloxacin with peptide at concentration (A); for MIC A MIC of Peptides: peptide alone, P. aeruginosa mutant Nal B, H744 (Table 5); for (A) Peptide doses together with Cipro: peptide concentration in combination with ciprofloxacin
Description: as §1
(§3) To test whether the peptides of the invention synergize with various antibiotics, the following method was employed. Fractional Inhibitory Concentration (FIC) was used to determine synergy of peptides combined with antibiotics (e.g., carbenicillin/ciprofloxacin) against Pseudomonas aeruginosa. The following methodology was followed:
(§4) (1) Determination of MIC of cationic peptides (MIC A):
(§5) 100 μl Mueller Hinton broth (MHB) was added per well
(§6) 12.5 μl of 10× test concentration peptide was added per well to get final peptide concentration of e.g., 128, 64, 32, . . . 0.025 μg/ml from row 1 to 11;
(§7) 10 μl of 10^−4 dilution of overnight bacterial culture was added per well.
(§8) (2) Determination of MIC of Carbenicillin/Ciprofloxacin (MIC B):
(§9) 100 μl MHB was added per well;
(§10) 100 μl of 2× test concentration of antibiotic was added in the first well of the row, and doubling dilutions performed across the plate from column 1 to 11;
(§11) (3) Determination of MIC of antibiotics (B) when combined with peptides at concentration A:
(§12) 100 μl Carbenicillin (512 μg/ml) or Ciprofloxacin (8 μg/ml) was added in each well of column 1; doubling dilutions were performed across the plate;
(§13) 100 μl of the peptide was added in all wells of row 1, mixed, and 100 μl withdrawn and added to row 2, etc., creating a checkerboard titration.
(§14) 10 μl of 10^−4 dilution of overnight culture was added per well;
(§15) plates were incubated at 37EC for 18-24 hours. Combination MIC values A and B were taken as the lowest concentration of drug that reduced bacterial growth by more than 50% in any given column.
(§16) (4) FIC index=FICA+FICB=(A)/MIC A+(B)/MIC B. An FIC index of approximately 0.5 or less indicates synergy; 1.0 reflects additivity; and >1.0 indicates antagonism.

[11] = tested on: β-lactamase derepressed mutant (H547) of P. aeruginosa; assay: microbe, parasite or virus in culture; format: cell-based; conditions: P. aeruginosa H547; for (B) MIC of Carb when combined with peptide: Carbenicillin with peptide at concentration (A); for MIC A MIC of Peptides: peptide alone; for (A) Peptide doses together with Carb: peptide concentration in combination with Carbenicillin
Description: as §1, §3, §4, §5, §6, §7, §8, §9, §10, §11, §12, §13, §14, §15, §16

Compound: CC[C@H](C)[C@H](NC(=O)CNC(=O)[C@@H](NC(=O)[C@H](CCCCN)NC(=O)[C@H](CCCCN)NC(=O)[C@H](Cc1ccccc1)NC(=O)[C@H](CC(C)C)NC(=O)[C@@H](N)CCCCN)[C@@H](C)CC)C(=O)NCC(=O)N[C@@H](C)C(=O)N[C@H](C(=O)N[C@@H](CC(C)C)C(=O)N[C@@H](CCCCN)C(=O)N[C@H](C(=O)N[C@@H](CC(C)C)C(=O)N[C@@H](CCCCN)C(=O)N[C@H](C(=O)N[C@@H](CC(C)C)C(=O)N[C@H](C(=O)N[C@H](C(=O)NCC(=O)N[C@@H](CC(C)C)C(=O)N1CCC[C@H]1C(=O)N[C@@H](C)C(=O)N[C@@H](CC(C)C)C(=O)N[C@@H](CCCCN)C(=O)N[C@@H](CC(C)C)C(=O)N[C@H](C(=O)N[C@@H](CC(C)C)C(=O)N[C@@H](CCCCN)C(=O)O)[C@@H](C)O)[C@@H](C)O)[C@@H](C)O)C(C)C)C(C)C)C(C)C [CM5]
- Mortality (%) [1]: 80%
- FIC for combination of cationic peptide and lysozyme [2]: 0.63
- Lowest [CP] showing synergy [2]: 10.4 µg/mL
- Lowest [Lyso] showing synergy [2]: 125 µg/mL
- FIC for combination of cationic peptide and lysozyme [3]: 0.27
- Lowest [CP] showing synergy [3]: 1.3 µg/mL
- Lowest [Lyso] showing synergy [3]: 7.8 µg/mL
- FIC for combination of cationic peptide and lysozyme [4]: 0.56
- Lowest [CP] showing synergy [4]: 10.4 µg/mL
- Lowest [Lyso] showing synergy [4]: 62.5 µg/mL
- MIC S. aureus [5]: >64 µg/mL
- MIC S. epidermis [6]: 11 µg/mL
- MIC E. coli [7]: 4 µg/mL
- MIC P. aeruginosa [8]: 16 µg/mL
- MIC S. aureus K147 [9]: 64 µg/mL
- (B) MIC of Cipro when combined with peptide ([10]; Nal B, H744): .125 µg/mL
- FIC index ([10]; peptide + ciprofloxacin, Nal B, H744): .75
- MIC A MIC of Peptides [10]: 4 µg/mL
- (A) Peptide doses together with Cipro ([10]; Nal B, H744): 1 µg/mL
- (B) MIC of Carb when combined with peptide [11]: 16 µg/mL
- FIC index ([11]; peptide + Carbenicillin, about 0.5 or less synergy, 1.0 additivity, >1.0 antagonism): 0.38
- MIC A MIC of Peptides [11]: 32 µg/mL
- (A) Peptide doses together with Carb [11]: 4 µg/mL

Compound: H-KWKSFIKKLTSAAKKVVTTAKPLALIS-OH [CM1]
- Mortality (%) [1]: 100%
- FIC for combination of cationic peptide and lysozyme [2]: 0.28
- Lowest [CP] showing synergy [2]: 0.65 µg/mL
- Lowest [Lyso] showing synergy [2]: 7.8 µg/mL
- FIC for combination of cationic peptide and lysozyme [3]: 0.19
- Lowest [CP] showing synergy [3]: 0.041 µg/mL
- Lowest [Lyso] showing synergy [3]: 7.8 µg/mL
- FIC for combination of cationic peptide and lysozyme [4]: 0.53
- Lowest [CP] showing synergy [4]: 0.531 µg/mL
- Lowest [Lyso] showing synergy [4]: 31.3 µg/mL
- MIC S. aureus [5]: 64 µg/mL
- MIC S. epidermis [6]: 21 µg/mL
- MIC E. coli [7]: 1 µg/mL
- MIC P. aeruginosa [8]: 5 µg/mL
- MIC S. aureus K147 [9]: 32 µg/mL
- (B) MIC of Cipro when combined with peptide ([10]; Nal B, H744): .25 µg/mL
- MIC A MIC of Peptides [10]: 2 µg/mL
- (A) Peptide doses together with Cipro ([10]; Nal B, H744): 1 µg/mL
- (B) MIC of Carb when combined with peptide [11]: 64 µg/mL
- MIC A MIC of Peptides [11]: 16 µg/mL
- (A) Peptide doses together with Carb [11]: 2 µg/mL
